Source: BindingDB's records for doi:10.3109/10799899109064686 (Center For Bio-Pharmaceutical Sciences, 1991)

Assays:
[1] = target: 5-hydroxytryptamine 1D receptor (Bos taurus, UniProt Q8MI13)
D(1A) dopamine receptor = D(1A) dopamine receptor (Rattus norvegicus, UniProt P18901)
[2] = target: Beta-1 adrenergic receptor (Rattus norvegicus, UniProt P18090)
[3] = target: T1, Alpha-2C adrenergic receptor (Rattus norvegicus, UniProt P22086)
T1 sequence (P22086 whole entry): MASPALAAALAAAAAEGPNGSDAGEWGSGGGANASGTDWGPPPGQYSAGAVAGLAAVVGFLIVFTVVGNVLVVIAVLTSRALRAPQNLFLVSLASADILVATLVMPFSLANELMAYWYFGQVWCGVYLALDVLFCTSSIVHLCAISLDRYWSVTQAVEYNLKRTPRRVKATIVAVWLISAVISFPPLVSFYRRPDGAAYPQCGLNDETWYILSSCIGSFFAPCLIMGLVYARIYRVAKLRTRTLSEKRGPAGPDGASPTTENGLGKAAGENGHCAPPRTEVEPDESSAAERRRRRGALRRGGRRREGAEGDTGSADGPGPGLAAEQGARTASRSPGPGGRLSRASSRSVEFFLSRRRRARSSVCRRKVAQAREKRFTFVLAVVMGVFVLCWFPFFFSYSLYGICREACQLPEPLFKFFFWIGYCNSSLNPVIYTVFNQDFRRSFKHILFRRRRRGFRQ

Adenosine receptor A2a = Adenosine receptor A2a (Rattus norvegicus, UniProt P30543)
Chain of Adenosine receptor A2a (P30543 whole entry): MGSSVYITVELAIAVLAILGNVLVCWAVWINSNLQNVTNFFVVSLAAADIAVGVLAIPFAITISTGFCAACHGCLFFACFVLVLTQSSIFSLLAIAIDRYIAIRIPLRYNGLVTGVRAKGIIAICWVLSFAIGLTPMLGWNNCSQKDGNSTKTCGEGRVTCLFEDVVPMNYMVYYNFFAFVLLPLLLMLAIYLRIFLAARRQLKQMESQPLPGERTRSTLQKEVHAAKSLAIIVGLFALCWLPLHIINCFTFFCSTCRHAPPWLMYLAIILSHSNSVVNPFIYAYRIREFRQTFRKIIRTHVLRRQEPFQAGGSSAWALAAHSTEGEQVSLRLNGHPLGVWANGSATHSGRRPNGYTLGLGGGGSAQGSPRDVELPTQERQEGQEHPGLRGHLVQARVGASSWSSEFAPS

Mu-type opioid receptor = Mu-type opioid receptor (Rattus norvegicus, UniProt P33535)
Chain of Mu-type opioid receptor (P33535 whole entry): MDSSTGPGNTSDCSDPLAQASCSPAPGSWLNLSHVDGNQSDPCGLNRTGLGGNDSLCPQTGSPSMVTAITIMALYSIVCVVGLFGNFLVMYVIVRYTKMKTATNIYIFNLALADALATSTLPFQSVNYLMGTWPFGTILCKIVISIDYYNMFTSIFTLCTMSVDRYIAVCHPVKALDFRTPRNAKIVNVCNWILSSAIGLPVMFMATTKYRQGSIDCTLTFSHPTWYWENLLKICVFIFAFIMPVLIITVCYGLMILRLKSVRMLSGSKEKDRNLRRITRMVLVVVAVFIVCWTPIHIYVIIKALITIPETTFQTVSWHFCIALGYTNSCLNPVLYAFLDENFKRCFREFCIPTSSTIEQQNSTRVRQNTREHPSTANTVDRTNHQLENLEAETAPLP

Adenosine receptor A1 = target: T2, Adenosine receptor A1 (Bos taurus, UniProt P28190)
T2 sequence (P28190 whole entry): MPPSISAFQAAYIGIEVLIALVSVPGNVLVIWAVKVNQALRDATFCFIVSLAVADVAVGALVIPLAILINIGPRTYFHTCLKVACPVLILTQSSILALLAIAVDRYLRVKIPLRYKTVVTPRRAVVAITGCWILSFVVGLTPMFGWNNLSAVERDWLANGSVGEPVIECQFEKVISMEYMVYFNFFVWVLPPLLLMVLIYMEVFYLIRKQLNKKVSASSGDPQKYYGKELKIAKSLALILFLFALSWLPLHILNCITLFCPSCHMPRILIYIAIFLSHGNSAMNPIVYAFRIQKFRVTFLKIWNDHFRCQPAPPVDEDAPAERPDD

[4] = target: Muscarinic acetylcholine receptor M3 (Rattus norvegicus, UniProt P08483)
Chain of Muscarinic acetylcholine receptor M3 (P08483 whole entry): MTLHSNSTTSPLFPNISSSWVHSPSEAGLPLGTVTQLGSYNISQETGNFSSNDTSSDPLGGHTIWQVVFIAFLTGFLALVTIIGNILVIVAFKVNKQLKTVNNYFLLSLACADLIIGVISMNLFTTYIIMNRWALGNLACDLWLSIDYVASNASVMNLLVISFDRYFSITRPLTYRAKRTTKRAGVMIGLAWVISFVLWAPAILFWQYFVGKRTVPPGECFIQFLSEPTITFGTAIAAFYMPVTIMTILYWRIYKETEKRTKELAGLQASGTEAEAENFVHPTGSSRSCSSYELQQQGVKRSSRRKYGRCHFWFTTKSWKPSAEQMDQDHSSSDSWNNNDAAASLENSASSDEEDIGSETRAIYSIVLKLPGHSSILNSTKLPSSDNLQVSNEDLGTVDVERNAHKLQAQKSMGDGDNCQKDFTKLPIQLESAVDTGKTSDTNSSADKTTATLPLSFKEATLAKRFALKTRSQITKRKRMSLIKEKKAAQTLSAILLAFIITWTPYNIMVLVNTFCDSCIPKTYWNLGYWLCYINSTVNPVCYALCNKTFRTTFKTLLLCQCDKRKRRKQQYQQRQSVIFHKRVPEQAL

D(2) dopamine receptor = D(2) dopamine receptor (Rattus norvegicus, UniProt P61169)
[5] = target: T3, Gastrin/cholecystokinin type B receptor (Rattus norvegicus, UniProt P30553)
T3 sequence (P30553 whole entry): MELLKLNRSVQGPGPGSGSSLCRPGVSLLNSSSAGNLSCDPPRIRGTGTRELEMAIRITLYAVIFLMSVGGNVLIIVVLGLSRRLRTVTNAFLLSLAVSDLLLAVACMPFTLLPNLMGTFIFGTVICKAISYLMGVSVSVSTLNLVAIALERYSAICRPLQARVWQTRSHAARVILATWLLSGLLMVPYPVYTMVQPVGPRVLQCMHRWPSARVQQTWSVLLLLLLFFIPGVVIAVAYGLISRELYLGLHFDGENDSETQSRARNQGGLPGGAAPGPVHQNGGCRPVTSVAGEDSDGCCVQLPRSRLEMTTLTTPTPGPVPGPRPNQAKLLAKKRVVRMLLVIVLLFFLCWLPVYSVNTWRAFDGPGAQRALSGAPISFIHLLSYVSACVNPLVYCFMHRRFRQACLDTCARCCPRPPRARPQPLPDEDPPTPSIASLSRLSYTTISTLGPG

[6] = target: Kappa-type opioid receptor (Rattus norvegicus, UniProt P34975)
Chain of Kappa-type opioid receptor (P34975 whole entry): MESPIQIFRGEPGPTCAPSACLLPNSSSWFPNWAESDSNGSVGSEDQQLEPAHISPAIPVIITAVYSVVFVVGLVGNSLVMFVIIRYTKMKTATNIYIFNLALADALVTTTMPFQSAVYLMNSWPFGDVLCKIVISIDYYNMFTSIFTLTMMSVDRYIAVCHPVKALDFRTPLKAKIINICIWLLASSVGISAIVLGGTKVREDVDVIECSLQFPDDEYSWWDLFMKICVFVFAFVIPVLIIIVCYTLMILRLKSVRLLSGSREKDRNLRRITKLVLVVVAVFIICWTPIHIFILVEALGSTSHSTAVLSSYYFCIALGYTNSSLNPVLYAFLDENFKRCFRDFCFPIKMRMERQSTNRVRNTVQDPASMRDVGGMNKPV

[7] = target: T4, 5-hydroxytryptamine receptor 1A (Rattus norvegicus, UniProt P19327)
T4 sequence (P19327 whole entry): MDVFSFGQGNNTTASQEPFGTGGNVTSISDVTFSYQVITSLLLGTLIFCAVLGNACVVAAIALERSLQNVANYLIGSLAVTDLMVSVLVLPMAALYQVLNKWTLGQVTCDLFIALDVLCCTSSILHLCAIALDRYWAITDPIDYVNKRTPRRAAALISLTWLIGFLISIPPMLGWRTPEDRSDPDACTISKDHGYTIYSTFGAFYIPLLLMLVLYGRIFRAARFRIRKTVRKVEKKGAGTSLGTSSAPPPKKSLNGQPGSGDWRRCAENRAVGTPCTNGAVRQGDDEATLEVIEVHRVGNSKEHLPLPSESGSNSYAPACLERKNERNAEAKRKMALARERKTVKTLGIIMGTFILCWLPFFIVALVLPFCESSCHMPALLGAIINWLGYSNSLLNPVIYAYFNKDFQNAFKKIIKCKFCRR

[8] = target: Gamma-aminobutyric acid receptor subunit alpha-1 (Rattus norvegicus, UniProt P62813)
Chain of Gamma-aminobutyric acid receptor subunit alpha-1 (P62813 whole entry): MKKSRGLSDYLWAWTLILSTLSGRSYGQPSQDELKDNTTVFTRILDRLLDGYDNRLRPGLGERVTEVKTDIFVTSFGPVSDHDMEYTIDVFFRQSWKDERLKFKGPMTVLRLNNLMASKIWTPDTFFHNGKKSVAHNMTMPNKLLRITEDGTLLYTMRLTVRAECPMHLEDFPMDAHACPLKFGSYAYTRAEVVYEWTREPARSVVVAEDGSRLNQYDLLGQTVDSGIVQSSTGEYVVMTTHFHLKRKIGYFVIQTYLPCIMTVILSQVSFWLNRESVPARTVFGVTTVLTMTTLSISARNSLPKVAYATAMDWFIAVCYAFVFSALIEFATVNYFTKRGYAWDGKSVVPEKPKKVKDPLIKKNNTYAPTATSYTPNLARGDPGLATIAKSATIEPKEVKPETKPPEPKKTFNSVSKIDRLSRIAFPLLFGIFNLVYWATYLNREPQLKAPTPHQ

Histamine H1 receptor = Histamine H1 receptor (Rattus norvegicus, UniProt P31390)
Chain of Histamine H1 receptor (P31390 whole entry): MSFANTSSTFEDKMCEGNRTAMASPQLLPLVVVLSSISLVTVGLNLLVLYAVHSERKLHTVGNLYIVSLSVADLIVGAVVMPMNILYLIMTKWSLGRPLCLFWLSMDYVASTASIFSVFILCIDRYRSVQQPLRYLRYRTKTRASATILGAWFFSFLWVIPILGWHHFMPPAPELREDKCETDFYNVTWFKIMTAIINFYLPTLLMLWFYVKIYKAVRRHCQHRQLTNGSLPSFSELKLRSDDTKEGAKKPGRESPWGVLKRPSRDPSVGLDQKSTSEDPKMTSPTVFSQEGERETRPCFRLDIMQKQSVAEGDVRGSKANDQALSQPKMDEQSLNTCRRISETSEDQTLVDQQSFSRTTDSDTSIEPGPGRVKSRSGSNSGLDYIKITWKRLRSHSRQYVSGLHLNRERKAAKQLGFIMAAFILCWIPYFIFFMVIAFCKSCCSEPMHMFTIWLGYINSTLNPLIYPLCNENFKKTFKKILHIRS

[9] = target: Substance-P receptor (Rattus norvegicus) (UniProt P14600)
Chain of Substance-P receptor (Rattus norvegicus) (P14600 whole entry, looked up): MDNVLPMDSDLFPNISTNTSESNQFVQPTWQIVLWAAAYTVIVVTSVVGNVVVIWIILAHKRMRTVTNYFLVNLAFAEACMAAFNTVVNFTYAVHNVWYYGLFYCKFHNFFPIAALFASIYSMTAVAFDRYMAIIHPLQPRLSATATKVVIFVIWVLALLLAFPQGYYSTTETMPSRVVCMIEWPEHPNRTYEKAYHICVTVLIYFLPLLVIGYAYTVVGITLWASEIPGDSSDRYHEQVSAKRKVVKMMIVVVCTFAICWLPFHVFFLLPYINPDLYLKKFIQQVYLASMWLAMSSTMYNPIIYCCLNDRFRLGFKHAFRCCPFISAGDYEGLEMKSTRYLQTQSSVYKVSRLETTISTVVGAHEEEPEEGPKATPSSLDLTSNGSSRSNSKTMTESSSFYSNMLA

[10] = target: Delta-type opioid receptor (Rattus norvegicus, UniProt P33533)
Chain of Delta-type opioid receptor (P33533 whole entry): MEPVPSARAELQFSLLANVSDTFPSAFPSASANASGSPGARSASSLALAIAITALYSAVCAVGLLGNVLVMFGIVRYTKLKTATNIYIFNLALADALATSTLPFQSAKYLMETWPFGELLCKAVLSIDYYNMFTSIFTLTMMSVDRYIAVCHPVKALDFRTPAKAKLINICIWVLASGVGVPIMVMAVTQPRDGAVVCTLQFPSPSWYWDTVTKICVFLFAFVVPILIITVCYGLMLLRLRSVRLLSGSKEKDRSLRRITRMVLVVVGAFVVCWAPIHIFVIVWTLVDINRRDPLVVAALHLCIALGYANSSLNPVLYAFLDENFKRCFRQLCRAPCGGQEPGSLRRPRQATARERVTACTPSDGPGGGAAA

Chain of D(1A) dopamine receptor (P18901 whole entry): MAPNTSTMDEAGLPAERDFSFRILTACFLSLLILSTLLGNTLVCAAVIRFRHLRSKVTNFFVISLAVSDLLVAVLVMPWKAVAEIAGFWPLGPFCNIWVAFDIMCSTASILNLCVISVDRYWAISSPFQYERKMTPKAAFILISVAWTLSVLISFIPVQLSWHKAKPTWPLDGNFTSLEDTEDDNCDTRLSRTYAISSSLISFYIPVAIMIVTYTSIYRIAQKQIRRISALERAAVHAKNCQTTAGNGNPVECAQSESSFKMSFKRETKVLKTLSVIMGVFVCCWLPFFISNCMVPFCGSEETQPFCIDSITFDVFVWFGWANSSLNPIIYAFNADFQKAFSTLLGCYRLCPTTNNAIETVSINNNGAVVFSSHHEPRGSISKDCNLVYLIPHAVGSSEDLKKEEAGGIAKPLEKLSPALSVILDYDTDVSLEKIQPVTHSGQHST
Chain of Beta-1 adrenergic receptor (P18090 whole entry): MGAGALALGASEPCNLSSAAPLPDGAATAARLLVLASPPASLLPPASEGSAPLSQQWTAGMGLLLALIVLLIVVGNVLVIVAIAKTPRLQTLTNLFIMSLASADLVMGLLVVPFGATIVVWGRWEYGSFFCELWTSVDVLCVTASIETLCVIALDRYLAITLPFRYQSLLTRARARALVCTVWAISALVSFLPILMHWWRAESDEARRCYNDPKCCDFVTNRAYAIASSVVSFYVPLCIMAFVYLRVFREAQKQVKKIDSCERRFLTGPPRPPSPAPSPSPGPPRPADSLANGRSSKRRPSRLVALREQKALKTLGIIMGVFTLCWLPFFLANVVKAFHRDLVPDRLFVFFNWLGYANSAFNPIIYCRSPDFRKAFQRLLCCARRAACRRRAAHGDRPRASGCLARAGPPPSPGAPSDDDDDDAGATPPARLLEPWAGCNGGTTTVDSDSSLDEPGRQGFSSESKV
Chain of 5-hydroxytryptamine 1D receptor (Q8MI13 whole entry): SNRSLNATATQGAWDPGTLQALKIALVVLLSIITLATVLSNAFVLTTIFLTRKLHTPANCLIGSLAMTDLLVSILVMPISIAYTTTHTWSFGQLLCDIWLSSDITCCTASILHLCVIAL

Ki [1] [µM]	Ki (D(1A) dopamine receptor) [µM]	Ki [2] [µM]	Ki [3] [µM]	Ki (Adenosine receptor A2a) [µM]	Ki (Mu-type opioid receptor) [µM]	Ki (Adenosine receptor A1) [µM]	Ki [4] [µM]	Ki (D(2) dopamine receptor) [µM]	Ki [5] [µM]	Ki [6] [µM]	Ki [7] [µM]	Ki [8] [µM]	Ki (Histamine H1 receptor) [µM]	Ki [9] [µM]	Ki [10] [µM]	SMILES
> 10	> 10	> 10	5.2	4.6	0.061	0.41	4.7	> 10	> 10	3.9	> 10	> 10	5.6	> 10	1	N=C(N)NC(=O)c1nc(Cl)c(N2CCCCCC2)nc1N
> 10	> 10	> 10	2.2	6.4	1.1	0.65	2.8	7.6	> 10	> 10	1.9	> 10	3.2	> 10	> 10	NC(=NCc1ccccc1)NC(=O)c1nc(Cl)c(N)nc1N [NSC_108107]

SMILES	Ki [1] [µM]	Ki (D(1A) dopamine receptor) [µM]	Ki [2] [µM]	Ki [3] [µM]	Ki (Adenosine receptor A2a) [µM]	Ki (Mu-type opioid receptor) [µM]	Ki (Adenosine receptor A1) [µM]	Ki [4] [µM]	Ki (D(2) dopamine receptor) [µM]	Ki [5] [µM]	Ki [6] [µM]	Ki [7] [µM]	Ki [8] [µM]	Ki (Histamine H1 receptor) [µM]	Ki [9] [µM]	Ki [10] [µM]
N=C(N)NC(=O)c1nc(Cl)c(N)nc1N [3,5-diamino-N-carbamimidoyl-6-chloropyrazine-2-carboxamide]	> 10	> 10	> 10	> 10	17	> 10	2	> 10	> 10	> 10	> 10	> 10	> 10	> 10	> 10	> 10
